Results published in PMC6268785, “Inhibition of PCAF Histone Acetyltransferase, Cytotoxicity and Cell Permeability of 2-Acylamino-1-(3- or 4-Carboxy-phenyl)benzamides” (Molecules, 2012).
Where two headings read alike, the source gives them in different places.

Key:
[1] = tested on: HCT-116 (human colon cancer); assay: SRB cytotoxicity assay, HCT-116; type: cell-based; settings: read-out: IC50 against HCT-116
Method: (§1) The cell lines used were HSF (normal cell), HT-29 (human colon cancer), HCT-116 (human colon cancer), MDA-231 (human breast cancer), A549 (human lung cancer), Hep3B (human hepatoma cancer), HeLa (human cervical cancer) and Caki (human kidney cancer) supplied from the Korean Cell Line Bank (Daejeon, Korea). Cells were grown as monolayer cultures in the T-175 flasks (Costar), were subcultured twice a week at 37 °C in an atmosphere containing 5% CO2 in air and 100% relative humidity and maintained at low passage number (5 to 20). RPMI medium 1640, Dulbecco’s modified eagle medium (DMEM, Gibco), fetal bovin serum, (FBS, Gibco), penicillin-streptomycin (P-S, Gibco), phosphate buffered saline pH 7.4 (PBS, Gibco), 0.25% trypsin-EDTA (Gibco), 0.4% trypan blue, dimethyl sulfoxide (DMSO) (Sigma-Aldrich), trichloroacetic acid (Sigma-Aldrich) and sulforhodamine B (SRB) (Sigma-Aldrich) were used.
(§2) Adherent cells at the logarithmic growth phase were detached the by an addition of 3 mL of trypsin-EDTA (1:250) mixture, and they were incubated for 5 min at 37 °C. The cells were plated (200 μL per well) in 96 well flat-bottom microplates at densities of 3 × 10^3 cells per well. The cells were plated in sextuplicate (six replicate wells per cell density) and experiments were performed three times. Microplates were left for 6 h at 37 °C, so that the cells were able to attach to the bottom of the wells before the fixation protocol was carried out.
(§3) […]. Then, cold (4 °C) 50% TCA (50 μL) was added to the top of 200 μL culture medium in each well to produce a final TCA concentration of 10%. Microplates were left for 30 min at 4 °C, and subsequently, they were washed five times with deionized water. Microplates were then left to dry at room temperature for at least 24 h.
(§4) The SRB assay was carried out as previously described. In brief, 0.4% (w/v) sulforhodamine B (70 μL) in acetic acid solution were added to each well and left at room temperature for 20 min. SRB was removed and the plates washed five times with 1% acetic acid before air drying. Bound SRB was solubilized with 10 mM unbuffered Tris-base solution (200 μL) and the plates were left on a plate shaker for at least 10 min. Absorbance was read in a 96-well plate reader at 492 nm subtracting the background measurement at 620 nm. The test optical density (OD) value was defined as the absorbance of each individual well, minus the blank value.

HSF (normal cell) = assay: SRB cytotoxicity assay, HSF normal cell line; type: cell-based; settings: read-out: IC50 against HSF
Method: as §1, §2, §3, §4

[2] = tested on: HT-29 (human colon cancer); assay: SRB cytotoxicity assay, HT-29; type: cell-based; settings: read-out: IC50 against HT-29
Method: as §1, §2, §3, §4

[3] = tested on: MDA-231 (human breast cancer); assay: SRB cytotoxicity assay, MDA-231; type: cell-based; settings: read-out: IC50 against MDA-231
Method: as §1, §2, §3, §4

PCAF HAT = target: T1, PCAF HAT (Homo sapiens, UniProt Q92831); assay: PCAF HAT inhibition assay (fluorescent, CPM detection of CoA-SH); type: biochemical; settings: for inhibition at 100 µM: read-out: PCAF HAT inhibition (%)
T1 construct: purchased Cayman Co., Ann Arbor, MI, USA
T1 sequence (Q92831 492-658 limits assumed): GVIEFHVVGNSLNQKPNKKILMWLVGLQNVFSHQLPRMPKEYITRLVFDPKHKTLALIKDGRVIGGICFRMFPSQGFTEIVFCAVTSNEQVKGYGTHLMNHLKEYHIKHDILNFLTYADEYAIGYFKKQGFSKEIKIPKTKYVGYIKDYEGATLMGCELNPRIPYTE
Method: The structural analogues were derived from anthranilic acid by introducing the acyl chain at the 2- position, and 3- or 4-carboxyaniline at the 1-position, respectively. The ability of new compounds 8–19 to inhibit HAT activity was analyzed in vitro using PCAF HAT enzymatic kit (Cayman Co., Ann Arbor, MI, USA). Anacardic acid, a commercially available HAT inhibitor, was used as a positive control.
The PCAF HAT inhibition studies were performed using a fluorescent assay as described previously. The enzyme activity was measured by the detection of CoA-SH by the fluorescent dye 7-(diethylamino)-3-(4'-maleimidylphenyl)-4-methylcoumarin (CPM). In brief, assay buffer (15 μL), acetyl CoA (5 μL) and diluted PCAF (10 μL) were added to all the wells. Dimethylsulfoxide (DMSO, 5 μL) was added to 100% initial activity wells and the background wells, and inhibitor (100 μM, 5 μL) was added to the inhibitor wells. PCAF HAT peptide (20 μL) was added to all the wells except the background wells. The wells were incubated on a shaker for 5 minutes at room temperature and HAT stop reagent (50 μL) was added to all the wells including the background wells. HAT peptide (20 μL) was added to the background wells only. HAT developer (100 μL) was added to all the wells including the background wells and incubated for 20 minutes at room temperature. Then, read the plate using an excitation wavelength of 360–390 nm and an emission wavelength of 450–470 nm. Subtract the fluorescence of the background wells from the fluorescence of the 100% initial activity and the inhibitor wells. The percent inhibition for each sample was determined as follows: [drawing 2]

A549 (human lung cancer) = assay: SRB cytotoxicity assay, A549; type: cell-based; settings: read-out: IC50 against A549
Method: as §1, §2, §3, §4

[4] = tested on: HeLa (human cervical cancer); assay: SRB cytotoxicity assay, HeLa; type: cell-based; settings: mean ± standard error, read-out: IC50 against HeLa
Method: as §1, §2, §3, §4

[5] = tested on: Caki (human kidney cancer); assay: SRB cytotoxicity assay, Caki; type: cell-based; settings: mean ± standard error, read-out: IC50 against Caki
Method: as §1, §2, §3, §4

[6] = tested on: Hep3B (human hepatoma cancer); assay: SRB cytotoxicity assay, Hep3B; type: cell-based; settings: mean ± standard error, read-out: IC50 against Hep3B
Method: as §1, §2, §3, §4

Caco-2 cell monolayers = assay: Caco-2 cell permeability assay; type: in vitro ADME, human; settings: Caco-2, apical to basolateral, initial concentration 50 μM; mean ± SD
[7] = tested on: seven human cancer cell lines; assay: SRB cytotoxicity assay, panel of seven cancer cell lines (summary in words); type: cell-based
Method: as §1
Adherent cells at the logarithmic growth phase were detached the by an addition of 3 mL of trypsin-EDTA (1:250) mixture, and they were incubated for 5 min at 37 °C. […]
The SRB assay was carried out as previously described. […] Absorbance was read in a 96-well plate reader at 492 nm subtracting the background measurement at 620 nm. The test optical density (OD) value was defined as the absorbance of each individual well, minus the blank value.

[8] = Homo sapiens, HCT-116, mean ± standard error
[9] = Homo sapiens, HT-29, mean ± standard error
[10] = Homo sapiens, MDA-MB-231, mean ± standard error
[11] = Homo sapiens, A549, mean ± standard error

Compound	IC50 ([1]; mean ± standard error)	IC50 (HSF (normal cell))	IC50 ([2]; mean ± standard error)	IC50 ([3]; mean ± standard error)	IC50 (A549 (human lung cancer); mean ± standard error)	IC50 [4]	IC50 [5]	IC50 [6]	PCAF HAT inhibition (%) (PCAF HAT; 100 μM compound)	other results
2-Hexadecanoylamino-1-(3-carboxyphenyl)benzamide [Compound 19]	40.3 ± 4.3 µM	> 100 µM	44.8 ± 2.98 µM	> 100 µM	40.5 ± 3.59 µM	36.9 ± 3.76 µM	82.6 ± 5.89 µM	43.8 ± 5.91 µM		PCAF HAT inhibition (%) (PCAF HAT; 100 μM compound, 100 µM): 61%
2-Octanoylamino-1-(3-carboxyphenyl)benzamide [Compound 11]	> 100 µM	> 100 µM	> 100 µM	> 100 µM	> 100 µM	> 100 µM	> 100 µM	> 100 µM		PCAF HAT inhibition (%) (PCAF HAT; 100 μM compound, 100 µM): 52%
2-Dodecanoylamino-1-(3-carboxyphenyl)benzamide [Compound 15]	> 100 µM	> 100 µM	> 100 µM	> 100 µM	> 100 µM	> 100 µM	> 100 µM	> 100 µM	42%	
2-Decanoylamino-1-(4-carboxyphenyl)benzamide [Compound 12]	> 100 µM	> 100 µM	> 100 µM	> 100 µM	> 100 µM	> 100 µM	63.8 ± 2.39 µM	> 100 µM	55%	
2-Tetradecanoylamino-1-(3-carboxyphenyl)benzamide [Compound 17]	29.2 ± 3.86 µM	> 100 µM	54.9 ± 3.49 µM	62.43 ± 0.58 µM	32.1 ± 1.36 µM	55 ± 3.14 µM	55.9 ± 5.09 µM	57.52 ± 0.26 µM	79%	Measured Papp (Caco-2 cell monolayers): 71.48 ± 4.67 ×10^−6 cm/s
2-Tetradecanoylamino-1-(4-carboxyphenyl)benzamide [Compound 16]	43.9 ± 2.39 µM	> 100 µM	54.8 ± 1.05 µM	79.1 ± 3.27 µM	46.2 ± 0.83 µM	56.5 ± 0.87 µM	63.08 ± 0.21 µM	73.3 ± 9.61 µM	72%	Measured Papp (Caco-2 cell monolayers): 68.21 ± 3.56 ×10^−6 cm/s
CCCCCCCCCCCCCCCc1cccc(O)c1C(=O)O [AA, Anacardic acid, reference compound]		> 100 µM								IC50 [1, 8]: 96.3 ± 4.33 µM; IC50 [2, 9]: 60.4 ± 6.36 µM; IC50 [3, 10]: 44.3 ± 4.2 µM; inhibition at 100 µM (PCAF HAT; 100 μM compound): 68%; IC50 (A549 (human lung cancer); [11]): 70.76 ± 0.41 µM; IC50 ([5]; Homo sapiens): > 100 µM; IC50 ([6]; Homo sapiens, Hep3B): > 100 µM
2-Hexanoylamino-1-(4-carboxyphenyl)benzamide [Compound 8]	> 100 µM	> 100 µM	> 100 µM	> 100 µM	> 100 µM		> 100 µM	> 100 µM	67%	
2-Octanoylamino-1-(4-carboxyphenyl)benzamide [Compound 10]	> 100 µM	> 100 µM	> 100 µM	51.8 ± 0.68 µM	> 100 µM	> 100 µM	69.5 ± 7.16 µM	> 100 µM	66%	
2-Dodecanoylamino-1-(4-carboxyphenyl)benzamide [Compound 14]	53.3 ± 2.05 µM	> 100 µM	> 100 µM	> 100 µM	> 100 µM	> 100 µM	> 100 µM	> 100 µM	46%	
2-Hexanoylamino-1-(3-carboxyphenyl)benzamide [Compound 9]	> 100 µM	> 100 µM	> 100 µM	> 100 µM	> 100 µM		> 100 µM	> 100 µM		
2-Decanoylamino-1-(3-carboxyphenyl)benzamide [Compound 13]	> 100 µM	> 100 µM	> 100 µM	> 100 µM	> 100 µM	> 100 µM	> 100 µM	> 100 µM	45%	
Nc1ccccc1C(=O)O [A, Anthranilic acid, reference compound]		> 100 µM								IC50 [1, 8]: > 100 µM; IC50 [2, 9]: > 100 µM; cytotoxic activity against cancer cell lines (in words) [7]: inactive against most of cancer cell lines; IC50 [3, 10]: > 100 µM; inhibition at 100 µM (PCAF HAT): 34%; IC50 (A549 (human lung cancer); [11]): > 100 µM; IC50 ([4]; Homo sapiens, HeLa): > 100 µM; IC50 ([5]; Homo sapiens): > 100 µM; IC50 ([6]; Homo sapiens, Hep3B): > 100 µM
